Measured values taken from US11419921B2, “Methods of treating neurological disorders” (EnClear Therapies, Inc., priority 2018, dated 2022).

Columns and labels:
[1] = tested on: iCell® motor neurons; experiment: Toxicity of (GR)10, untreated or protease-treated, on iCell motor neurons; format: cell-based; conditions: (GR)10 concentrations of 25, 50 and 100 μM
Method: 200 μM of (GR)10 were diluted in human cerebrospinal fluid (CSF) and 400 μL were applied to each immobilized proteases. The reaction was incubated 5 minutes at room temperature with end-to-end mixing. Columns were spun down 1 minute at 1,000 Xg to recover digested GR dipeptides. Columns were washed with 12 resin volumes of PBS. The procedure was repeated with 60 minutes digestion time. 100 μL of each samples were transferred to a clean tube, flash-frozen and subsequently used for LC/MS quantification of GR repeats of different lengths. The remaining 300 μL of each samples were flash-frozen and used to assess neuron toxicity.
300 μL of CSF were applied to each immobilized proteases and incubated 60 minutes at room temperature with end-to-end mixing. Columns were spun down 1 minute at 1,000 Xg to recover treated CSF. Samples were flash-frozen and subsequently used to test neuron toxicity.
This example describes the reduced toxicity of (GR)10 on in vitro neuronal cells by digestion of (GR)10 with proteases.

[2] = tested on: (GR)10; experiment: (GR)10 digestion by immobilized proteases stored at 4° C. for over 2 months; format: biochemical; conditions: 200 μM (GR)10 in PBS, 5 or 60 minute treatment, FIGS. 8C, 8D
Method: (GR)10 was prepared in water to a stock concentration of 10 mM then diluted to a concentration of 200 μM in PBS with Ca^2+ and Mg^2+. (GR)10 samples were then treated with agarose resins having immobilized trypsin or elastase, PBS alone, or agarose resin alone, for 5 minutes or 60 minutes at room temperature. Resins were prepared by a routine method as commonly used by persons of ordinary skill in the art (e.g., the binding reaction described in the POROS™ 20 AL, EP and OH Perfusion Chromatography Bulk Media for Activated Affinity Chromatography Product Information Sheet, ThermoFisher Scientific, Waltham, Mass., Pub. No. 8-0031-40-0993, Rev. C., (incorporated herein by reference in its entirety)) and stored at 4° C. for over 2 months.
50 μl of treated samples were prepared for LC/MS analysis by adding 2.5 μl of 10% trifluoroacetic acid to each sample and 150 μl of dilution solution (0.5% formic acid in ACN/MeOH [50:50]).

[3] = tested on: (GR)10; experiment: Cleavage of (GR)10 by enzymes in solution (PBS with CaCl2 and MgCl2), LC/MS of GR repeats; format: biochemical; conditions: (GR)10 50 μM
Method: • (GR)10 dipeptide (also (GR)8, (GR)6, (GR)4, (GR)2) were synthetized by solid-phase synthesis by CanPeptide; All peptides are uncapped and supplied lyophilized with TFA as counter ions. Purity was always above 95%. • Buffer: PBS buffer containing CaCl2 and MgCl2. • Stock solution of enzyme (e.g., 10 mg/mL) (prepared per manufacturer instructions) in PBS. Activators added as necessary. • Working solution of protein of the desired concentration (e.g., 100 μg/mL) prepared immediately before use by diluting the stock solution (e.g., 5 μL of 10 mg/mL stock solution) in PBS buffer (e.g., in 495 μL of PBS). Exemplary Procedure Using 50 μM Concentrations of (GR)10
25 μL of a 100 μM solution of (GR)10 was added to each well of a 96-well plate. 25 μL of a solution of enzyme (two times the desired final enzyme concentration) was added, and the plates were incubated at room temperature. At the specified time points (5 minutes, 10 minutes, 30 minutes, 60 minutes, and 180 minutes) 2.5 μL of a 10% TFA solution were added to stop the reaction. For the time 0 min well, the TFA was added to the well before addition of the enzyme. After last time point, all samples were further diluted with 150 μL of dilution solution. The quenched reaction mixtures were analyzed by LC/MS to determine the concentration of GR repeats of different lengths.
The chromatography and mass spectrometry conditions utilized are shown in Table 2 and Table 3, respectively.

agarose resin having immobilized elastase: elastase immobilized in-house on agarose resin
Effect of protease treatment of (GR)10 on (GR)10 toxicity [1]: abrogation of (GR)10 toxicity | (GR)10 proteolytic activity after storage at 4° C. for over 2 months [2]: did not exhibit substantial (GR)10 proteolytic activity

Thrombin
(GR)1 concentration ([3]; enzyme 2.5 μg/mL, 0 min): BLQ | (GR)2 concentration ([3]; enzyme 2.5 μg/mL, 0 min): BLQ | (GR)4 concentration ([3]; enzyme 2.5 μg/mL, 0 min): 0.1 µM | (GR)6 concentration ([3]; enzyme 2.5 μg/mL, 0 min): 0.1 µM | (GR)8 concentration ([3]; enzyme 2.5 μg/mL, 0 min): 1.1 µM | (GR)10 concentration ([3]; enzyme 2.5 μg/mL, 0 min): 37.7 µM | (GR)1 concentration ([3]; enzyme 2.5 μg/mL, 5 min): BLQ | (GR)2 concentration ([3]; enzyme 2.5 μg/mL, 5 min): BLQ | (GR)4 concentration ([3]; enzyme 2.5 μg/mL, 5 min): 0.1 µM | (GR)6 concentration ([3]; enzyme 2.5 μg/mL, 5 min): 0.1 µM | (GR)8 concentration ([3]; enzyme 2.5 μg/mL, 5 min): 1.5 µM | (GR)10 concentration ([3]; enzyme 2.5 μg/mL, 5 min): 42.9 µM | (GR)1 concentration ([3]; enzyme 2.5 μg/mL, 10 min): BLQ | (GR)2 concentration ([3]; enzyme 2.5 μg/mL, 10 min): BLQ | (GR)4 concentration ([3]; enzyme 2.5 μg/mL, 10 min): 0.1 µM | (GR)6 concentration ([3]; enzyme 2.5 μg/mL, 10 min): BLQ | (GR)8 concentration ([3]; enzyme 2.5 μg/mL, 10 min): 1.4 µM | (GR)10 concentration ([3]; enzyme 2.5 μg/mL, 10 min): 46.7 µM | (GR)1 concentration ([3]; enzyme 2.5 μg/mL, 30 min): BLQ | (GR)2 concentration ([3]; enzyme 2.5 μg/mL, 30 min): 0.1 µM | (GR)4 concentration ([3]; enzyme 2.5 μg/mL, 30 min): 0.2 µM | (GR)6 concentration ([3]; enzyme 2.5 μg/mL, 30 min): 0.1 µM | (GR)8 concentration ([3]; enzyme 2.5 μg/mL, 30 min): 1.3 µM | (GR)10 concentration ([3]; enzyme 2.5 μg/mL, 30 min): 49.1 µM | (GR)1 concentration ([3]; enzyme 2.5 μg/mL, 60 min): 0.1 µM | (GR)2 concentration ([3]; enzyme 2.5 μg/mL, 60 min): 0.2 µM | (GR)4 concentration ([3]; enzyme 2.5 μg/mL, 60 min): 0.3 µM | (GR)6 concentration ([3]; enzyme 2.5 μg/mL, 60 min): 0.1 µM | (GR)8 concentration ([3]; enzyme 2.5 μg/mL, 60 min): 1.1 µM | (GR)10 concentration ([3]; enzyme 2.5 μg/mL, 60 min): 56.2 µM | (GR)1 concentration ([3]; enzyme 2.5 μg/mL, 120 min): 0.2 µM | (GR)2 concentration ([3]; enzyme 2.5 μg/mL, 120 min): 0.2 µM | (GR)4 concentration ([3]; enzyme 2.5 μg/mL, 120 min): 0.4 µM | (GR)6 concentration ([3]; enzyme 2.5 μg/mL, 120 min): 0.3 µM | (GR)8 concentration ([3]; enzyme 2.5 μg/mL, 120 min): BLQ | (GR)10 concentration ([3]; enzyme 2.5 μg/mL, 120 min): 45.3 µM | (GR)1 concentration ([3]; enzyme 10 μg/mL, 0 min): BLQ | (GR)2 concentration ([3]; enzyme 10 μg/mL, 0 min): BLQ | (GR)4 concentration ([3]; enzyme 10 μg/mL, 0 min): 0.1 µM | (GR)6 concentration ([3]; enzyme 10 μg/mL, 0 min): BLQ | (GR)8 concentration ([3]; enzyme 10 μg/mL, 0 min): 1.3 µM | (GR)10 concentration ([3]; enzyme 10 μg/mL, 0 min): 52.0 µM | (GR)1 concentration ([3]; enzyme 10 μg/mL, 5 min): 0.1 µM | (GR)2 concentration ([3]; enzyme 10 μg/mL, 5 min): 0.1 µM | (GR)4 concentration ([3]; enzyme 10 μg/mL, 5 min): 0.2 µM | (GR)6 concentration ([3]; enzyme 10 μg/mL, 5 min): BLQ | (GR)8 concentration ([3]; enzyme 10 μg/mL, 5 min): BLQ | (GR)10 concentration ([3]; enzyme 10 μg/mL, 5 min): 54.8 µM | (GR)1 concentration ([3]; enzyme 10 μg/mL, 10 min): 0.1 µM | (GR)2 concentration ([3]; enzyme 10 μg/mL, 10 min): 0.1 µM | (GR)4 concentration ([3]; enzyme 10 μg/mL, 10 min): 0.2 µM | (GR)6 concentration ([3]; enzyme 10 μg/mL, 10 min): 0.1 µM | (GR)8 concentration ([3]; enzyme 10 μg/mL, 10 min): 1.0 µM | (GR)10 concentration ([3]; enzyme 10 μg/mL, 10 min): 59.4 µM | (GR)1 concentration ([3]; enzyme 10 μg/mL, 30 min): 0.3 µM | (GR)2 concentration ([3]; enzyme 10 μg/mL, 30 min): 0.4 µM | (GR)4 concentration ([3]; enzyme 10 μg/mL, 30 min): 0.4 µM | (GR)6 concentration ([3]; enzyme 10 μg/mL, 30 min): 0.4 µM | (GR)8 concentration ([3]; enzyme 10 μg/mL, 30 min): 1.3 µM | (GR)10 concentration ([3]; enzyme 10 μg/mL, 30 min): 48.6 µM | (GR)1 concentration ([3]; enzyme 10 μg/mL, 60 min): 0.5 µM | (GR)2 concentration ([3]; enzyme 10 μg/mL, 60 min): 0.6 µM | (GR)4 concentration ([3]; enzyme 10 μg/mL, 60 min): 0.8 µM | (GR)6 concentration ([3]; enzyme 10 μg/mL, 60 min): 0.5 µM | (GR)8 concentration ([3]; enzyme 10 μg/mL, 60 min): 2.4 µM | (GR)10 concentration ([3]; enzyme 10 μg/mL, 60 min): 55.2 µM | (GR)1 concentration ([3]; enzyme 10 μg/mL, 120 min): 1.1 µM | (GR)2 concentration ([3]; enzyme 10 μg/mL, 120 min): 1.4 µM | (GR)4 concentration ([3]; enzyme 10 μg/mL, 120 min): 1.6 µM | (GR)6 concentration ([3]; enzyme 10 μg/mL, 120 min): 1.3 µM | (GR)8 concentration ([3]; enzyme 10 μg/mL, 120 min): 3.0 µM | (GR)10 concentration ([3]; enzyme 10 μg/mL, 120 min): 48.7 µM
